Measured values as given in patent US20230020329A1, “Annelated 9-hydroxy-1,8-dioxo-1,3,4,8-tetrahydro-2H-pyrido[1,2-a]pyrazine-7-carboxamides as HIV integrase inhibitors, methods of preparation and application thereof” (priority 2019, published 2023).
Like-named read-outs stand apart in the source and are kept apart here.

Assays:
rat plasma proteins = test: Plasma protein binding by equilibrium dialysis, rat; format: in vitro ADME; settings: for Binding class / Extraction / Permeability: rat; for Bound: rat plasma diluted to 50%, 37° C.; for Bound / Extraction / Permeability: 1 μM, 4 h; for Permeability: dialysis membrane
Method: (§1) To assess protein binding, pooled samples of blood plasma diluted with phosphate buffer up to 50% were used. The test was carried out in a teflon coated 48-well dialysis plate. Each well contained two separate chambers separated by a vertical semipermeable dialysis membrane with 8 kDa pores. A plasma sample with 1 μM of the test compound was placed into one of the chambers, and a buffer solution (pH=7.2) was placed in the other chamber. Over time, at 37° C. while rocking, passive diffusion of the unbound compound occurred and after 4 hours the equilibrium state between the chambers with plasma and the buffer solution was reached. The amount of free fraction was evaluated by HPLC-MS/MS following precipitation of the proteins by acetonitrile. Also, the study involved evaluation of stability of the substance during the 4-hour period and passive permeability through the dialysis membrane in the buffer by mass balance. Warfarin was used as the control compound. The results are presented in Table 4, from which it follows that the compounds of general formula 1.1 have a high degree of binding to human and rat plasma proteins.

HIV-1 (IIIB strain) = test: Anti-HIV cytoprotection assay (XTT), HIV-1 IIIB in CEM-SS cells; format: cell-based; settings: CEM-SS cell line, read-out: Inhibitory activity (EC50) against HIV-1 (IIIB strain)
Outline: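 CEM-SS cells infected with a pre-titrated virus dose killing 85–95% of cells by day 6; protection from HIV-induced death read by XTT formazan. Compounds screened in triplicate at 30 and 10 nM, actives retested at 2 nM; AZT six-concentration curve on each plate as positive control.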

human plasma proteins = test: Plasma protein binding by equilibrium dialysis, human; format: in vitro ADME; settings: for Binding class / Extraction / Permeability: human; for Bound: human plasma diluted to 50%, 37° C.; for Bound / Extraction / Permeability: 1 μM, 4 h; for Permeability: dialysis membrane
Method: as §1

[1] = system: HIV-1 (NL4.3 strain) carrying the GFP reporter gene (NL4.3-GFP); test: HIV-1 NL4.3-GFP infection of SupT1 cells; format: cell-based; settings: Human immunodeficiency virus 1, SUP-T1, read-out: Inhibitory activity (EC50) of HIV-1 (NL4.3 strain) carrying the GFP reporter gene
Method: 6. Inhibitory Activity of HIV-1 (NL4.3 Strain) Carrying the GFP Reporter Gene (NL4.3-GFP) in the SuPT1 Cell Line.
The evaluation was done by RetroVirox Inc. (San Diego, Calif., USA). SupT1 cells were infected with the HIV NL4.3 strain carrying the green fluorescent protein gene (NL4.3-GFP). The virus sample was produced by transfection of 293T cells with proviral DNA. The sample was frozen 48 hours after transfection and stored until use. To enhance the efficiency of infection, a suspension of SupT1 cells was precipitated from the infectious mixture by centrifugation. Test substances were added to the cells immediately before adding the virus. After 2 hours of incubation, the infectious mixture was replaced with a fresh culture medium containing test samples. The effectiveness of the infection was determined after 45 hours by counting the percentage of fluorescent cells in comparison with uninfected cell cultures. The cytotoxicity of the test compounds was determined in parallel on the same, but not infected, SupT1 cell line using the XTT reagent. Serial tenfold dilutions of the samples (starting from 10 μM when determining antiviral activity or from 100 μM for determining cytotoxicity). As a negative control, 0.1% DMSO was used. The values of EC50 were calculated. The quality of the tests was determined using the following controls: signal-to-noise ratio, integrase inhibitor raltegravir (1 μM), and test reproducibility.

C[C@H]1CO[C@@H]2Cn3cc(C(=O)NCc4ncc(F)cc4F)c(=O)c(O)c3C(=O)N12 [Compound 1.1.17, (3S,11aR)-6-hydroxy-N-[(3,5-difluoropyridin-2-yl)methyl]-3-methyl-5,7-dioxo-2,3,5,7,11,11a-hexahydro[1,3]oxazolo[3,2-a]pyrido[1,2-d]pyrazine-8-carboxamide]
Binding class (rat plasma proteins): High | Bound (rat plasma proteins): 99.9% | Extraction (rat plasma proteins): 108% | Permeability (rat plasma proteins): 90.9% | EC50 (HIV-1 (IIIB strain); Human immunodeficiency virus 1, IIIB, CEM-SS): 0.24 nM | Binding class (human plasma proteins): High | Bound (human plasma proteins): 98.8% | Extraction (human plasma proteins): 94.6% | Permeability (human plasma proteins): 84.8% | EC50 [1]: 1.5 nM

C[C@H]1CO[C@@H]2Cn3cc(C(=O)NCc4ccc(F)nc4F)c(=O)c(O)c3C(=O)N12 [Compound 1.1.19, (3S,11aR)-6-hydroxy-N-[(2,6-difluoropyridin-3-yl)methyl]-3-methyl-5,7-dioxo-2,3,5,7,11,11a-hexahydro[1,3]oxazolo[3,2-a]pyrido[1,2-d]pyrazine-8-carboxamide]
Binding class (rat plasma proteins): High | Bound (rat plasma proteins): 98.9% | Extraction (rat plasma proteins): 94.5% | Permeability (rat plasma proteins): 83.8% | EC50 (HIV-1 (IIIB strain)): 0.24 nM | Binding class (human plasma proteins): High | Bound (human plasma proteins): 99.0% | Extraction (human plasma proteins): 95.0% | Permeability (human plasma proteins): 84.0% | EC50 [1]: 1.9 nM
